Values of other authors as cited in patent US5028528A, “Analytical element for theophylline determination using buffer in a subbing zone” (Eastman Kodak Company, priority 1988, dated 1991).

Details: in a patient

Cn1c(=O)c2[nH]cnc2n(C)c1=O [Theophylline]
therapeutic range of use: 1 to 2 mg/dL
